Where a SMILES comes first, the peptide text is derived from it. [ ]: non-standard residue; d: D form. Oic = O=C(O)[C@@H]1C[C@@H]2CCCC[C@@H]2N1; Hyp = O=C(O)[C@@H]1C[C@@H](O)CN1; dTic = O=C(O)[C@H]1Cc2ccccc2CN1
Legend:
B2 bradykinin receptor = molecular target: T1, B2 bradykinin receptor (Cavia porcellus, UniProt O70526); test: Binding affinity towards bradykinin receptor B2 using [3H]bradykinin
T1 sequence (O70526 whole entry): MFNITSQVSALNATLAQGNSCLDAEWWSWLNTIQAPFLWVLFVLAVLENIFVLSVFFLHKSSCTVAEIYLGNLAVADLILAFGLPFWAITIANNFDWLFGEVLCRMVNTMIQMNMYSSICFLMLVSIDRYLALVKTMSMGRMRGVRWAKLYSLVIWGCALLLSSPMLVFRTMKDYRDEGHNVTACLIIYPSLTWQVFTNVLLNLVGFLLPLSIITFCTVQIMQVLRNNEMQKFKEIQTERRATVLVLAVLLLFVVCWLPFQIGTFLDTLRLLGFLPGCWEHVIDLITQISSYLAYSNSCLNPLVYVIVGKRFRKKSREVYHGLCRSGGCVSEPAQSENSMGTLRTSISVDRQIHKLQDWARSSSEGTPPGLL

Cavia porcellus = species: Cavia porcellus; test: Compound was tested for bradykinin-induced contractions in guinea pig ileum; format: functional; conditions: read-out: pA2 (converted)

- Ki (B2 bradykinin receptor): 0.11 nM
SMILES: NC(N)=NCCC[C@@H](N)C(=O)N[C@@H](CCCN=C(N)N)C(=O)N1CCC[C@H]1C(=O)N1C[C@H](O)C[C@H]1C(=O)NCC(=O)N[C@@H](Cc1ccccc1)C(=O)N[C@@H](CO)C(=O)N1Cc2ccccc2C[C@@H]1C(=O)N1[C@H](C(=O)N[C@@H](CCCN=C(N)N)C(=O)O)C[C@@H]2CCCC[C@@H]21 (H-[dR]RP[Hyp]GFS[dTic][Oic]R-OH)
- Kb (Cavia porcellus): 1.58 nM
